Data: ChEMBL document CHEMBL1909046, “DrugMatrix in vitro pharmacology data”

Legend:
[1] = biological target: T1, Alpha-2A adrenergic receptor (Homo sapiens, UniProt P08913); type: cell membranes, Sf9, Membrane; conditions: sf9; further: in other assays of this panel Not Active means under 50% inhibition at 10 µM
T1 sequence (P08913 whole entry): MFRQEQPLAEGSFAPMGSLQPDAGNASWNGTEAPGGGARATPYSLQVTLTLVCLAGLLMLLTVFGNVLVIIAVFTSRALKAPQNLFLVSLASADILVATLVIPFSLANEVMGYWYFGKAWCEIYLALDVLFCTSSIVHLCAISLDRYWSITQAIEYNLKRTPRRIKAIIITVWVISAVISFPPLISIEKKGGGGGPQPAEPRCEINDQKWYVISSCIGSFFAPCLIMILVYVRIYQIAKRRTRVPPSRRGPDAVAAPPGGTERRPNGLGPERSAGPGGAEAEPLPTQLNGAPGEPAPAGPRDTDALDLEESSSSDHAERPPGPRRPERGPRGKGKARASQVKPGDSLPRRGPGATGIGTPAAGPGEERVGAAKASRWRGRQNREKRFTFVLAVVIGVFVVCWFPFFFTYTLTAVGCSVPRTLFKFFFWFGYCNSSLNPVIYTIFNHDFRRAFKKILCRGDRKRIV

[2] = DRUGMATRIX: GABAA, Flunitrazepam, Central radioligand binding (ligand: [3H] Flunitrazepam); type: cell membranes, Rattus norvegicus, Wistar, Brain, Membrane; conditions: Not Active = under 50% inhibition at 10 µM
[3] = DRUGMATRIX: GABAA, Chloride Channel, TBOB radioligand binding (ligand: [3H] TBOB); type: cell membranes, Rattus norvegicus, Wistar, Cerebral cortex, Membrane; conditions: Not Active = under 50% inhibition at 10 µM
[4] = DRUGMATRIX: Glutamate, NMDA, Phencyclidine radioligand binding (ligand: [3H] TCP); type: cell membranes, Rattus norvegicus, Wistar, Cerebral cortex, Membrane; conditions: Not Active = under 50% inhibition at 10 µM
Histamine H2 receptor = Histamine H2 receptor (Homo sapiens, UniProt P25021); type: cell membranes, CHO-K1, Membrane; conditions: cho-k1; further: in other assays of this panel Not Active means under 50% inhibition at 10 µM
Chain of Histamine H2 receptor (P25021 whole entry): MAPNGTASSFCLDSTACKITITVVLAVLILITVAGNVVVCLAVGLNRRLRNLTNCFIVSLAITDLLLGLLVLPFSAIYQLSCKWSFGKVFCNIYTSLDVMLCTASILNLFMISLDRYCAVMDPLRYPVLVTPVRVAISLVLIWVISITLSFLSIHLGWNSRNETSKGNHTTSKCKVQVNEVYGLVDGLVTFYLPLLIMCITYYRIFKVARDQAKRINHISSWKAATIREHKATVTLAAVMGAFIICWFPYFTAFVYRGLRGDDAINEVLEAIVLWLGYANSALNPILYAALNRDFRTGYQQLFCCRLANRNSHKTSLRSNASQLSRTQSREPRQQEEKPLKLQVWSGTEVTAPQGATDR

[5] = biological target: T2, Muscarinic acetylcholine receptor M2 (Homo sapiens, UniProt P08172); type: cell membranes, CHO-K1, Membrane; conditions: cho-k1; further: in other assays of this panel Not Active means under 50% inhibition at 10 µM
T2 sequence (P08172 whole entry): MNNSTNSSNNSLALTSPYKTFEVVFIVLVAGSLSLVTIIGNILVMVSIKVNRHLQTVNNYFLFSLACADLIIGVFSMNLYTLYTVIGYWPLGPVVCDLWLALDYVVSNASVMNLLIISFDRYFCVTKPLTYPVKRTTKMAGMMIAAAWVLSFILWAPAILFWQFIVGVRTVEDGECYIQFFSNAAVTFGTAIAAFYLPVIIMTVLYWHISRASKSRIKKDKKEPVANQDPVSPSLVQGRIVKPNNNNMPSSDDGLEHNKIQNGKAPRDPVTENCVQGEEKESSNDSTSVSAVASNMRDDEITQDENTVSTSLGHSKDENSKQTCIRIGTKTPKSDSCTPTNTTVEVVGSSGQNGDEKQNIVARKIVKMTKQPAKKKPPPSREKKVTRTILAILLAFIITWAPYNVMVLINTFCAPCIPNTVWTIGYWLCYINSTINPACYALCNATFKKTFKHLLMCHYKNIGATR

[6] = biological target: Protein phosphatase 3 catalytic subunit alpha (Homo sapiens, UniProt Q08209); parameters: species or system Escherichia coli;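 further: inhibition of calcineurin (PP2B) enzyme activity, measured with DiFMUP as the substrate; in other assays of this panel Not Active means under 50% inhibition at 10 µM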

OCCO [ETHYLENE GLYCOL]
Not Active: IC50 [1] | IC50 [2] | Ki [2] | IC50 [3] | Ki [3] | IC50 [4] | Ki [4] | IC50 (Histamine H2 receptor) | IC50 [5] | IC50 [6]

CC(=O)OCC(CCn1cnc2cnc(N)nc21)COC(C)=O [FAMCICLOVIR]
Not Active: IC50 [1] | IC50 [2] | Ki [2] | IC50 [3] | Ki [3] | IC50 [4] | Ki [4] | IC50 (Histamine H2 receptor) | IC50 [5] | IC50 [6]

O=C(O)Cc1ccc(-c2ccccc2)cc1 [FELBINAC]
Not Active: IC50 [1] | IC50 [2] | Ki [2] | IC50 [3] | Ki [3] | IC50 [4] | Ki [4] | IC50 (Histamine H2 receptor) | IC50 [5] | IC50 [6]

CCOC(=O)C1=C(C)NC(C)=C(C(=O)OC)C1c1cccc(Cl)c1Cl (stereo not given) [FELODIPINE]
Not Active: IC50 [1] | IC50 [2] | Ki [2] | IC50 [3] | Ki [3] | IC50 [4] | Ki [4] | IC50 (Histamine H2 receptor) | IC50 [5] | IC50 [6]

CC(C(=O)O)c1ccc(-c2ccccc2)c(F)c1 (stereo not given) [FLURBIPROFEN]
Not Active: IC50 [1] | IC50 [2] | Ki [2] | IC50 [3] | Ki [3] | IC50 [4] | Ki [4] | IC50 (Histamine H2 receptor) | IC50 [5] | IC50 [6]

Cc1cn[nH]c1 [FOMEPIZOLE]
Not Active: IC50 [1] | IC50 [2] | Ki [2] | IC50 [3] | Ki [3] | IC50 [4] | Ki [4] | IC50 (Histamine H2 receptor) | IC50 [5] | IC50 [6]

NC[C@@H]1O[C@H](O[C@H]2[C@@H](O)[C@H](O[C@@H]3[C@@H](O)[C@H](N)C[C@H](N)[C@H]3O[C@H]3O[C@H](CN)[C@@H](O)[C@H](O)[C@H]3N)O[C@@H]2CO)[C@H](N)[C@@H](O)[C@@H]1O [FRAMYCETIN]
Not Active: IC50 [1] | IC50 [2] | Ki [2] | IC50 [3] | Ki [3] | IC50 [4] | Ki [4] | IC50 (Histamine H2 receptor) | IC50 [5] | IC50 [6]

C[C@H]([C@](O)(Cn1cncn1)c1ccc(F)cc1F)S(C)(=O)=O [GENACONAZOLE]
Not Active: IC50 [1] | IC50 [2] | Ki [2] | IC50 [3] | Ki [3] | IC50 [4] | Ki [4] | IC50 (Histamine H2 receptor) | IC50 [5] | IC50 [6]

Cc1c(F)c(N2CCNC(C)C2)cc2c1c(=O)c(C(=O)O)cn2C1CC1 (stereo not given) [GREPAFLOXACIN]
Not Active: IC50 [1] | IC50 [2] | Ki [2] | IC50 [3] | Ki [3] | IC50 [4] | Ki [4] | IC50 (Histamine H2 receptor) | IC50 [5] | IC50 [6]

COc1ccccc1OCC(O)CO (stereo not given) [GUAIFENESIN]
Not Active: IC50 [1] | IC50 [2] | Ki [2] | IC50 [3] | Ki [3] | IC50 [4] | Ki [4] | IC50 (Histamine H2 receptor) | IC50 [5] | IC50 [6]

C[C@]12CCC(=O)C=C1CC[C@@H]1[C@@H]2[C@@H](O)C[C@@]2(C)[C@H]1CC[C@]2(O)C(=O)CO [HYDROCORTISONE]
Not Active: IC50 [1] | IC50 [2] | Ki [2] | IC50 [3] | Ki [3] | IC50 [4] | Ki [4] | IC50 (Histamine H2 receptor) | IC50 [5] | IC50 [6]

C/C=C\c1ccc(O)c(OC)c1 [ISOEUGENOL]
Not Active: IC50 [1] | IC50 [2] | Ki [2] | IC50 [3] | Ki [3] | IC50 [4] | Ki [4] | IC50 (Histamine H2 receptor) | IC50 [5] | IC50 [6]

NC[C@H]1O[C@H](O[C@H]2[C@H](O)[C@@H](O[C@H]3O[C@H](CO)[C@@H](O)[C@H](N)[C@H]3O)[C@H](N)C[C@@H]2N)[C@H](O)[C@@H](O)[C@@H]1O [KANAMYCIN]
Not Active: IC50 [1] | IC50 [2] | Ki [2] | IC50 [3] | Ki [3] | IC50 [4] | Ki [4] | IC50 (Histamine H2 receptor) | IC50 [5] | IC50 [6]

CC[C@H](C)C(=O)O[C@H]1C[C@@H](C)C=C2C=C[C@H](C)[C@H](CC[C@@H]3C[C@@H](O)CC(=O)O3)[C@H]21 [LOVASTATIN]
Not Active: IC50 [1] | IC50 [2] | Ki [2] | IC50 [3] | Ki [3] | IC50 [4] | Ki [4] | IC50 (Histamine H2 receptor) | IC50 [5] | IC50 [6]

CC(C(=O)O)c1ccc(CC2CCCC2=O)cc1 (stereo not given) [LOXOPROFEN]
Not Active: IC50 [1] | IC50 [2] | Ki [2] | IC50 [3] | Ki [3] | IC50 [4] | Ki [4] | IC50 (Histamine H2 receptor) | IC50 [5] | IC50 [6]

Cc1cccc(Nc2ccccc2C(=O)O)c1C [MEFENAMIC ACID]
Not Active: IC50 [1] | IC50 [2] | Ki [2] | IC50 [3] | Ki [3] | IC50 [4] | Ki [4] | IC50 (Histamine H2 receptor) | IC50 [5] | IC50 [6]

CC(=O)O[C@]1(C(C)=O)CC[C@H]2[C@@H]3C=C(C)C4=CC(=O)CC[C@]4(C)[C@H]3CC[C@@]21C [MEGESTROL ACETATE]
Not Active: IC50 [1] | IC50 [2] | Ki [2] | IC50 [3] | Ki [3] | IC50 [4] | Ki [4] | IC50 (Histamine H2 receptor) | IC50 [5] | IC50 [6]

COc1ccccc1OCC(O)COC(N)=O (stereo not given) [METHOCARBAMOL]
Not Active: IC50 [1] | IC50 [2] | Ki [2] | IC50 [3] | Ki [3] | IC50 [4] | Ki [4] | IC50 (Histamine H2 receptor) | IC50 [5] | IC50 [6]

CN(Cc1cnc2nc(N)nc(N)c2n1)c1ccc(C(=O)N[C@@H](CCC(=O)O)C(=O)O)cc1 [METHOTREXATE]
Not Active: IC50 [1] | IC50 [2] | Ki [2] | IC50 [3] | Ki [3] | IC50 [4] | Ki [4] | IC50 (Histamine H2 receptor) | IC50 [5] | IC50 [6]

COC(=O)c1ccccc1O [METHYL SALICYLATE]
Not Active: IC50 [1] | IC50 [2] | Ki [2] | IC50 [3] | Ki [3] | IC50 [4] | Ki [4] | IC50 (Histamine H2 receptor) | IC50 [5] | IC50 [6]

COc1ccc2cc(CCC(C)=O)ccc2c1 [NABUMETONE]
Not Active: IC50 [1] | IC50 [2] | Ki [2] | IC50 [3] | Ki [3] | IC50 [4] | Ki [4] | IC50 (Histamine H2 receptor) | IC50 [5] | IC50 [6]

O=C(O)c1cccnc1 [NIACIN]
Not Active: IC50 [1] | IC50 [2] | Ki [2] | IC50 [3] | Ki [3] | IC50 [4] | Ki [4] | IC50 (Histamine H2 receptor) | IC50 [5] | IC50 [6]

CNC(=C[N+](=O)[O-])NCCSCc1csc(CN(C)C)n1 [NIZATIDINE]
Not Active: IC50 [1] | IC50 [2] | Ki [2] | IC50 [3] | Ki [3] | IC50 [4] | Ki [4] | IC50 (Histamine H2 receptor) | IC50 [5] | IC50 [6]

C[C@]12C/C(=C/O)C(=O)C[C@@H]1CC[C@@H]1[C@@H]2CC[C@@]2(C)[C@H]1CC[C@]2(C)O [OXYMETHOLONE]
Not Active: IC50 [1] | IC50 [2] | Ki [2] | IC50 [3] | Ki [3] | IC50 [4] | Ki [4] | IC50 (Histamine H2 receptor) | IC50 [5] | IC50 [6]
